Laboratory results from ChEMBL document CHEMBL4800729 (2021).
Activity calls are given as the source filed them. The rule behind the calls is not given here.

Tests used:
[1] = organism: Rattus norvegicus; conditions: Compound concentration 10.0 uM
[2] = target: Cyclin-dependent kinase-like 3 (Homo sapiens) (UniProt Q8IVW4); test: CDKL3(h) Millipore kinase panel; conditions: Compound concentration 1.0 uM
[3] = target: Serine/threonine-protein kinase PLK2 (Homo sapiens) (UniProt Q9NYY3); test: Snk(h) Millipore kinase panel; conditions: Compound concentration 1.0 uM
[4] = target: Dual specificity tyrosine-phosphorylation-regulated kinase 1A (Homo sapiens) (UniProt Q13627); test: DYRK1A(h) Millipore kinase panel; conditions: Compound concentration 1.0 uM
[5] = target: Vasopressin V1a receptor (Homo sapiens) (UniProt P37288); conditions: Compound concentration 10.0 uM
[6] = target: Calcium/calmodulin-dependent protein kinase type 1G (Homo sapiens) (UniProt Q96NX5); test: CaMKIgamma(h) Millipore kinase panel; conditions: Compound concentration 1.0 uM
[7] = target: Serine/threonine-protein kinase 38 (Homo sapiens) (UniProt Q15208); test: NDR1(h) Millipore kinase panel; conditions: Compound concentration 1.0 uM
[8] = target: Serine/threonine-protein kinase 35 (Homo sapiens) (UniProt Q8TDR2); test: CLIK1(h) Millipore kinase panel; conditions: Compound concentration 1.0 uM
[9] = target: Serine/threonine-protein kinase PRP4 homolog (Homo sapiens) (UniProt Q13523); test: PRP4(h) Millipore kinase panel; conditions: Compound concentration 1.0 uM
[10] = target: Monoamine oxidase B (MAO-B) (Homo sapiens, UniProt P27338); test: Inhibition of Monoamine Oxidase MAO-B at compound concentration of 10.0 uM in the Eurofins-Panlabs enzyme assay (Eurofins_assay_140120); set-up: substrate with concentration 50 uM Kynuramine, incubation time 60 min, incubation temperature 37 C; conditions: recombinant human MAO-B expressed in insect Hi5 cells, probe Kynuramine (50 uM), compound concentration 10 uM
[11] = target: PAS domain-containing serine/threonine-protein kinase (Homo sapiens) (UniProt Q96RG2); test: PASK(h) Millipore kinase panel; conditions: Compound concentration 1.0 uM
[12] = target: RAC-alpha serine/threonine-protein kinase (Homo sapiens) (UniProt P31749); test: PKBalpha(h) Millipore kinase panel; conditions: Compound concentration 1.0 uM
[13] = target: Tribbles homolog 2 (Homo sapiens) (UniProt Q92519); test: TRB2(h) Millipore kinase panel; conditions: Compound concentration 1.0 uM
[14] = target: Progesterone receptor (Homo sapiens) (UniProt P06401); conditions: Compound concentration 10.0 uM
[15] = target: Tyrosine-protein kinase ABL2 (Homo sapiens) (UniProt P42684); test: Arg(h) Millipore kinase panel; conditions: Compound concentration 1.0 uM
[16] = target: Protein kinase C epsilon type (Homo sapiens) (UniProt Q02156); test: PKCepsilon(h) Millipore kinase panel; conditions: Compound concentration 1.0 uM
[17] = target: Dual specificity mitogen-activated protein kinase kinase 3 (Homo sapiens) (UniProt P46734); test: MKK3(h) Millipore kinase panel; conditions: Compound concentration 1.0 uM
[18] = target: Serine-protein kinase ATM (Homo sapiens) (UniProt Q13315); test: ATM(h) Millipore kinase panel; conditions: Compound concentration 1.0 uM
[19] = target: BMP-2-inducible protein kinase (Homo sapiens) (UniProt Q9NSY1); test: BIKe(h) Millipore kinase panel; conditions: Compound concentration 1.0 uM
[20] = target: Gamma-aminobutyric acid type B receptor subunit 1 (Homo sapiens) (UniProt Q9UBS5); conditions: Rattus norvegicus; Compound concentration 10.0 uM
[21] = target: Delta-type opioid receptor (Homo sapiens) (UniProt P41143); conditions: Compound concentration 10.0 uM
[22] = target: Serine/threonine-protein kinase PAK 1 (Homo sapiens) (UniProt Q13153); test: PAK1(h) Millipore kinase panel; conditions: Compound concentration 1.0 uM
[23] = target: Rhodopsin kinase GRK7 (Homo sapiens) (UniProt Q8WTQ7); test: GRK7(h) Millipore kinase panel; conditions: Compound concentration 1.0 uM
[24] = target: Serine/threonine-protein kinase WNK1 (Homo sapiens) (UniProt Q9H4A3); test: WNK1(h) Millipore kinase panel; conditions: Compound concentration 1.0 uM
[25] = target: Transcription initiation factor TFIID subunit 1-like (Homo sapiens) (UniProt Q8IZX4); test: TAF1L(h) Millipore kinase panel; conditions: Compound concentration 1.0 uM
[26] = target: D(4) dopamine receptor (Homo sapiens) (UniProt P21917); conditions: Compound concentration 10.0 uM
[27] = target: RAC-beta serine/threonine-protein kinase (Homo sapiens) (UniProt P31751); test: PKBbeta(h) Millipore kinase panel; conditions: Compound concentration 1.0 uM
[28] = target: T1, 5-hydroxytryptamine receptor 1A (Homo sapiens) (UniProt P08908); conditions: Compound concentration 10.0 uM
T1 sequence (whole entry): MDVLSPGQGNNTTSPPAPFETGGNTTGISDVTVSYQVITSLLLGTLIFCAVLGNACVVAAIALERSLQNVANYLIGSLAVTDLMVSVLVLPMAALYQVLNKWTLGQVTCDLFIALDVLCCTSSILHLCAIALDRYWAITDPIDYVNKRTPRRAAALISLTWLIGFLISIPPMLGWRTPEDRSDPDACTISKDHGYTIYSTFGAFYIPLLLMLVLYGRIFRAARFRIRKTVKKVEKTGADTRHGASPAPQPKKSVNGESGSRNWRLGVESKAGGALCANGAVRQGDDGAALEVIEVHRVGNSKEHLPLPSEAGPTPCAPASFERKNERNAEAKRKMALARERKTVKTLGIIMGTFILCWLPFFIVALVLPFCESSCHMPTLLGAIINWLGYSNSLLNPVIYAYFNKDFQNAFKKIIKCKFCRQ

[29] = target: Serine/threonine-protein kinase 32C (Homo sapiens) (UniProt Q86UX6); test: STK32C(h) Millipore kinase panel; conditions: Compound concentration 1.0 uM
[30] = target: STE20-like serine/threonine-protein kinase (Homo sapiens) (UniProt Q9H2G2); test: SLK(h) Millipore kinase panel; conditions: Compound concentration 1.0 uM
[31] = target: Focal adhesion kinase 1 (Homo sapiens) (UniProt Q05397); test: FAK(h Millipore kinase panel; conditions: Compound concentration 1.0 uM
[32] = target: T1, 5-hydroxytryptamine receptor 1A (Homo sapiens); conditions: Compound concentration 10.0 uM; remark: listed apart in the source
[33] = target: Serine/threonine-protein kinase 10 (Homo sapiens) (UniProt O94804); test: LOK(h) Millipore kinase panel; conditions: Compound concentration 1.0 uM
[34] = target: Phosphatidylinositol 4-phosphate 3-kinase C2 domain-containing subunit alpha (Homo sapiens) (UniProt O00443); test: PI3KC2a(h) Millipore kinase panel; conditions: Compound concentration 1.0 uM
[35] = target: 3',5'-cyclic-AMP phosphodiesterase 4D (Homo sapiens) (UniProt Q08499); test: Inhibition of Phosphodiesterase PDE4D2 at 10 µM in the Eurofins-Panlabs enzyme assay (Eurofins_assay_154420); set-up: substrate with concentration; conditions: Compound concentration 10.0 uM
[36] = target: Muscle, skeletal receptor tyrosine-protein kinase (Homo sapiens) (UniProt O15146); test: MuSK(h) Millipore kinase panel; conditions: Compound concentration 1.0 uM
[37] = target: Mitogen-activated protein kinase kinase kinase kinase 3 (Homo sapiens) (UniProt Q8IVH8); test: MAP4K3(h) Millipore kinase panel; conditions: Compound concentration 1.0 uM
[38] = target: Ephrin type-A receptor 3 (Homo sapiens) (UniProt P29320); test: EphA3(h) Millipore kinase panel; conditions: Compound concentration 1.0 uM
[39] = target: PI3-kinase p110-delta/p85-alpha (Homo sapiens) (UniProt P27986+O00329); test: PI3 Kinase (p110d/p85a)(h) Millipore kinase panel; assay type: protein-complex assay; conditions: Compound concentration 1.0 uM
[40] = target: Serine/threonine-protein kinase Nek7 (Homo sapiens) (UniProt Q8TDX7); test: NEK7(h) Millipore kinase panel; conditions: Compound concentration 1.0 uM
[41] = target: Serine/threonine-protein kinase 38-like (Homo sapiens) (UniProt Q9Y2H1); test: NDR2(h) Millipore kinase panel; conditions: Compound concentration 1.0 uM

Sequence of Phosphatidylinositol 4-phosphate 3-kinase C2 domain-containing subunit alpha (Homo sapiens) (O00443 whole entry, the tested form may be a part): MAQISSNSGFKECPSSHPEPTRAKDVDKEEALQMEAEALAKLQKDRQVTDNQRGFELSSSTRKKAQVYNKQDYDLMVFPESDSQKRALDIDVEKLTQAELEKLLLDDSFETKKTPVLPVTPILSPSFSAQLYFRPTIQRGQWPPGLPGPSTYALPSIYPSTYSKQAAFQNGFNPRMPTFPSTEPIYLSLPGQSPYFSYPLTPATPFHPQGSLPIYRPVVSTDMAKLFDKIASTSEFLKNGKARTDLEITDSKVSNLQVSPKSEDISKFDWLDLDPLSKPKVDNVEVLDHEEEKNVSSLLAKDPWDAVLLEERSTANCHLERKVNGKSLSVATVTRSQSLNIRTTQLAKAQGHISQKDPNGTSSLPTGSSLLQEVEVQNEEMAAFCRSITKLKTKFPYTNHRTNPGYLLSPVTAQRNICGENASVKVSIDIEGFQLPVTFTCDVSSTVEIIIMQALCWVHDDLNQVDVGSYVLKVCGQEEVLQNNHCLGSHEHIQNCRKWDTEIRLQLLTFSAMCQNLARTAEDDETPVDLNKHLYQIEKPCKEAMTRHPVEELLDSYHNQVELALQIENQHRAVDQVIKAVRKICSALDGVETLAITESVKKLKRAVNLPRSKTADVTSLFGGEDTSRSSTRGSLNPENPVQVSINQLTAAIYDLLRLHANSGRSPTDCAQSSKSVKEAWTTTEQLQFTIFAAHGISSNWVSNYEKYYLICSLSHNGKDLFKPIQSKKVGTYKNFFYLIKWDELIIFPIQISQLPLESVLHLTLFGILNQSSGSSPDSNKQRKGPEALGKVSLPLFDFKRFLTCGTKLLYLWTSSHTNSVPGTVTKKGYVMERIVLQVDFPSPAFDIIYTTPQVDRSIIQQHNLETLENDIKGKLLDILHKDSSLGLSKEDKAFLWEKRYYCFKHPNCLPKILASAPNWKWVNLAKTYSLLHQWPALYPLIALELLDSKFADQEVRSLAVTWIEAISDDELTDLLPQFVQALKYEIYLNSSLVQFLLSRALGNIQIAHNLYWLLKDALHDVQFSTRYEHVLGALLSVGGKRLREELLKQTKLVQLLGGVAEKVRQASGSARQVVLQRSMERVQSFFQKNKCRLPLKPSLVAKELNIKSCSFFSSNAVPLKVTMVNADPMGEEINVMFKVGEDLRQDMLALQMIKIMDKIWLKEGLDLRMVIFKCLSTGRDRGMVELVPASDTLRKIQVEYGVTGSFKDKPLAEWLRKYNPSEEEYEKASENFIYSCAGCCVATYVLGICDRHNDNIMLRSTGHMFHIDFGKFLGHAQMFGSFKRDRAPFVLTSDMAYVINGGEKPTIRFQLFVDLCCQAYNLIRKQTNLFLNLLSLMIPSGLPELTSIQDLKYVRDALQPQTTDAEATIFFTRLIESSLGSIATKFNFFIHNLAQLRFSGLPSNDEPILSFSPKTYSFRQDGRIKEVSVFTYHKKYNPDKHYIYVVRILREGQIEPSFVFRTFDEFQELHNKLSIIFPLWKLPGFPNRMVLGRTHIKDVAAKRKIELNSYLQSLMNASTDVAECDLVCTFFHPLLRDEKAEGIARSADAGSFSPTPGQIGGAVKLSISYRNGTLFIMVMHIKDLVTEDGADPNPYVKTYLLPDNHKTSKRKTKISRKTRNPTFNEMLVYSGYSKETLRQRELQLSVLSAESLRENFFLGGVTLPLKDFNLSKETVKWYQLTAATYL
Sequence of Calcium/calmodulin-dependent protein kinase type 1G (Homo sapiens) (Q96NX5 whole entry): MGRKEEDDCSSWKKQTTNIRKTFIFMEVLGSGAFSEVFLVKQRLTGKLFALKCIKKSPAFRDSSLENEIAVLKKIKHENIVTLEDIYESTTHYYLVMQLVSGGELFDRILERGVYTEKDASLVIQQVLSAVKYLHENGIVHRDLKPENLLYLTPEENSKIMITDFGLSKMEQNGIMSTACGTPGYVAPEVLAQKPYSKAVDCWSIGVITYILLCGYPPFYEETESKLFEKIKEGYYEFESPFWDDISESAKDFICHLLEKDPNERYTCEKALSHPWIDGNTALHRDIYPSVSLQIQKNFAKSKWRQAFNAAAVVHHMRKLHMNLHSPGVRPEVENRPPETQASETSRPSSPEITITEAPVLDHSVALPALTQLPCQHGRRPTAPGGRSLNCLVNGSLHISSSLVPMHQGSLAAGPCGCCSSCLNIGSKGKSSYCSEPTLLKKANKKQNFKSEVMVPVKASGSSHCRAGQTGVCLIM
Sequence of Serine/threonine-protein kinase 35 (Homo sapiens) (Q8TDR2 whole entry): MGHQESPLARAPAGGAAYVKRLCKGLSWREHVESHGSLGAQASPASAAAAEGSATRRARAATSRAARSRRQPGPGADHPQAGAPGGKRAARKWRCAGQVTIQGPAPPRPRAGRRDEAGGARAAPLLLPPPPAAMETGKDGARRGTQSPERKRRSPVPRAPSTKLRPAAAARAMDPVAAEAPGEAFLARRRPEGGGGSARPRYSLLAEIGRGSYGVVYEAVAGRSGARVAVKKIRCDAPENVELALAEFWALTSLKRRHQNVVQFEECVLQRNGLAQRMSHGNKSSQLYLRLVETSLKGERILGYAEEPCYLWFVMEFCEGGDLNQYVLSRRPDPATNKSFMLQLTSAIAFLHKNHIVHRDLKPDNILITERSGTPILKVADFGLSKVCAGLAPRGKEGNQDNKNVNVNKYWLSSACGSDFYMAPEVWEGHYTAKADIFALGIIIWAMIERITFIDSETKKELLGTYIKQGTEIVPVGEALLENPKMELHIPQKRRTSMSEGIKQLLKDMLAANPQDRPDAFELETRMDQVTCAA
Sequence of Tyrosine-protein kinase ABL2 (Homo sapiens) (P42684 whole entry): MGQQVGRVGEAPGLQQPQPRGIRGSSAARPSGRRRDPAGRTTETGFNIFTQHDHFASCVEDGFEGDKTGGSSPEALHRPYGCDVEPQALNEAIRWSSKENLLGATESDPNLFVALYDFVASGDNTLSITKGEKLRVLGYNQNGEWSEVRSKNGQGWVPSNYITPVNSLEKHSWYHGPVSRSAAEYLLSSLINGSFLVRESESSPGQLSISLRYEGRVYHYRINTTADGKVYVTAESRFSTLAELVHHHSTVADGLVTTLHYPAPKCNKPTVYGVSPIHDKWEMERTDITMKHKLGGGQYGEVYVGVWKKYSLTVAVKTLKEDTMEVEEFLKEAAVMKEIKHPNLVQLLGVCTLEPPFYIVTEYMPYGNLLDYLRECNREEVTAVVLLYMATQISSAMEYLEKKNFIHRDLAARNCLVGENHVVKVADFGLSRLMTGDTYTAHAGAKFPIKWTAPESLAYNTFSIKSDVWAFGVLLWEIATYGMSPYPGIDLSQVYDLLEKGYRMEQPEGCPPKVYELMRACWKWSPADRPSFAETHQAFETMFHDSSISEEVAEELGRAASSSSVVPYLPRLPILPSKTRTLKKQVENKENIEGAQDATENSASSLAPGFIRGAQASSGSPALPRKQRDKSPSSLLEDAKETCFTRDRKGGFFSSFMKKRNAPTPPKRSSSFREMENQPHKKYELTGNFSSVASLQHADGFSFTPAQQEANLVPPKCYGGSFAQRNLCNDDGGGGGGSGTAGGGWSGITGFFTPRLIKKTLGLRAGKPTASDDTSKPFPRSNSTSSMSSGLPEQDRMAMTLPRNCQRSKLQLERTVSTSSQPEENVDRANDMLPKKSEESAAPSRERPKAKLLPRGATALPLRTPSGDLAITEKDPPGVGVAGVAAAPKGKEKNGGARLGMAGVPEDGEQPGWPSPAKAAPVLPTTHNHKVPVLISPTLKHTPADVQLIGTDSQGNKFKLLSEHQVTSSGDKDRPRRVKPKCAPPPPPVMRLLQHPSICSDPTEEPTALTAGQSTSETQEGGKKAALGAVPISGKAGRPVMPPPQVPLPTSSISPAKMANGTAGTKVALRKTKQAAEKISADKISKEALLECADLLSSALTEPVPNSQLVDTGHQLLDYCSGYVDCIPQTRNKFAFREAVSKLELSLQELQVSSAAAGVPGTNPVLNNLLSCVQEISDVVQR
Sequence of Dual specificity mitogen-activated protein kinase kinase 3 (Homo sapiens) (P46734 whole entry): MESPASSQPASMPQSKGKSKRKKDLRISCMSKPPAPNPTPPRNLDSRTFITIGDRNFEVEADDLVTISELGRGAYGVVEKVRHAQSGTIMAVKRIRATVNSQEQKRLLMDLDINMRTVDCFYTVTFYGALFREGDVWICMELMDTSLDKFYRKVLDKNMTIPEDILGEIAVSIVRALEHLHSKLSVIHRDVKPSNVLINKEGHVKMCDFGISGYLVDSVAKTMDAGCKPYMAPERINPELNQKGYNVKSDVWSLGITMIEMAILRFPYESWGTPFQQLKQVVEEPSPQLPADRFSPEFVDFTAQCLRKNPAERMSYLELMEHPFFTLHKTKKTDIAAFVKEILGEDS
Sequence of Serine/threonine-protein kinase 32C (Homo sapiens) (Q86UX6 whole entry): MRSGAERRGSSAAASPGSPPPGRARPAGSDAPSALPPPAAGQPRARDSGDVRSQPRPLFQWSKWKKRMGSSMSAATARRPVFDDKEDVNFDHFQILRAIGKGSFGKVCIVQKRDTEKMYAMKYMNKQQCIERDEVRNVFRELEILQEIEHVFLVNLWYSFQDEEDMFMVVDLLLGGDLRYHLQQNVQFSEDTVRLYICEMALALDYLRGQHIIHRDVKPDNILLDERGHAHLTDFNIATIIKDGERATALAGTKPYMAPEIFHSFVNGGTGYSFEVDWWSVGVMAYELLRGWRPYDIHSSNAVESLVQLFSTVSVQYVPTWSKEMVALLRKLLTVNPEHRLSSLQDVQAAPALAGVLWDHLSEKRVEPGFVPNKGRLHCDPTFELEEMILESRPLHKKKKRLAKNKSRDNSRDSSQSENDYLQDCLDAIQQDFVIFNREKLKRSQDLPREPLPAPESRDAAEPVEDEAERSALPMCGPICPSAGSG
Sequence of Tribbles homolog 2 (Homo sapiens) (Q92519 whole entry): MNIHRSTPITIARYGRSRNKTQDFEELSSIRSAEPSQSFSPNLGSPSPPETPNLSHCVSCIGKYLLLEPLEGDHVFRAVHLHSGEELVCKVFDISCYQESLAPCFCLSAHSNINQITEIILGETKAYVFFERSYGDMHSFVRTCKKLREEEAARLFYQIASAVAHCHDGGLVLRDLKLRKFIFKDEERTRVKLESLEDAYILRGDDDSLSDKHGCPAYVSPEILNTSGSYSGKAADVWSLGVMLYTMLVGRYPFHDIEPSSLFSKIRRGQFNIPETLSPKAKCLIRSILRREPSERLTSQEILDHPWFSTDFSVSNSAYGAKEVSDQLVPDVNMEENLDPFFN

## CC[C@@H](Nc1c(C#N)c(-c2ccc(-c3cccc(C)c3F)cc2)nc2cnccc12)C(=O)O [BAY-091]
[1]
  inhibition: 1%
[2]
  inhibition: 8.18%
[3]
  inhibition: 7.48%
[4]
  inhibition: 4.22%
[5]
  inhibition: -3%
[6]
  inhibition: 14.4%
[7]
  inhibition: -6%
[8]
  inhibition: 9.55%
[9]
  inhibition: 18.9%
[10]
  inhibition at 60 min, 10 µM: 81% (active)
[11]
  inhibition: 11.1%
[12]
  inhibition: -1.04%
[13]
  inhibition: 0.49%
[14]
  inhibition: 29%
[15]
  inhibition: 7.75%
[16]
  inhibition: -4.26%
[17]
  inhibition: 12.8%
[18]
  inhibition: 0.32%
[19]
  inhibition: 5.17%
[20]
  inhibition: 5%
[21]
  inhibition: 12.9%
[22]
  inhibition: 23.8%
[23]
  inhibition: 2.75%
[24]
  inhibition: 14.7%
[25]
  inhibition: -3.49%
[26]
  inhibition: 2.8%
[27]
  inhibition: 3.52%
[28]
  inhibition: -4.91%
[29]
  inhibition: 5.49%
[30]
  inhibition: 19.7%
[31]
  inhibition: 13.3%
[32]
  inhibition: 27%
[33]
  inhibition: 8.13%
[34]
  inhibition: 4.18%
[35]
  inhibition: 38%
[36]
  inhibition: 5.1%
[37]
  inhibition: 8.29%
[38]
  inhibition: 4.71%
[39]
  inhibition: 30.9%
[40]
  inhibition: 5.49%
[41]
  inhibition: 5.88%
